Data reported in patent publication US8999990B2, “Inhibitors of the renal outer medullary potassium channel” (Merck Sharp & Dohme Corp., priority 2011, dated 2015).

Molecular target: T1, hROMK1 (Kir1.1) (Homo sapiens, UniProt P48048)
T1 construct: expressed in transfected cells
T1 sequence (P48048 1-391): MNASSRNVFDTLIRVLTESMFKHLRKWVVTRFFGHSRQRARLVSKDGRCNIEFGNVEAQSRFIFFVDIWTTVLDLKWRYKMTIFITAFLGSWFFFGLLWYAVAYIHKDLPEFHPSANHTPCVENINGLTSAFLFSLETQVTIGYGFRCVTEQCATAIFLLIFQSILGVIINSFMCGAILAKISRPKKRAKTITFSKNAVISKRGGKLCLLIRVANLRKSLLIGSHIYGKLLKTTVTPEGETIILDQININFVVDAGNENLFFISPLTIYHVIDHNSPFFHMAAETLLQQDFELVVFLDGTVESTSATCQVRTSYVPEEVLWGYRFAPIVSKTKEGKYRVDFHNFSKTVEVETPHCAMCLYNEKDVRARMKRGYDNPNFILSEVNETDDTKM
Assay: 86Rb+ Efflux Assay
Format: cell-based
Conditions: CHO-DHFR- cells stably expressing hROMK1; 35 min incubation
Experimental: Several assays may be used to measure functional inhibition of the ROMK channel by compounds of the instant invention. One assay that was used to test the activity of compounds in the Examples is the functional ^86Rb^+ efflux assay described below, that measures the ability of ROMK to permeate ^86Rb^+, in the absence or presence of test compound. Under control conditions, cells loaded with ^86Rb^+ and incubated in Rb^+-free medium display a time-dependent efflux of the isotope, the rate of which depends on number of functional channels. When cells are incubated in the presence of a channel inhibitor, efflux of ^86Rb^+ is prevented in a concentration-dependent manner, and IC50 values of inhibition by compounds can be accurately determined. This assay has been established with cell lines expressing either human, rat or dog ROMK channels, and can operate in 96- or 384-well format. Importantly, the human, rat, and dog ^86Rb^+ efflux assays can be carried out in the presence of up to 100% serum allowing, therefore, an accurate estimation of the effect of protein binding on the inhibitory activity of compounds of interest. Another ROMK functional assay used to test the activity of compounds in the Examples (described below) makes use of the ability of thallium to permeate through open ROMK channels and increase the fluorescence of a dye previously loaded into the cells. Under control conditions, cells loaded with dye and exposed to thallium-containing medium display a time-dependent increase in fluorescence, the rate of which depends on number of functional channels. When cells are incubated in the presence of a channel inhibitor, the increase in fluorescence is attenuated in a concentration-dependent manner, and IC50 values of inhibition by compounds can be accurately determined. This assay has been established with cell lines expressing either human, or rat ROMK channels, and operates in 384-well format.
CHO-DHFR-cells stably expressing hROMK1 (Kir1.1) are grown at 37° C. in a 10% CO2 humidified incubator in Iscove's Modified Dulbecco's Medium (Gibco 12440) supplemented with HT Supplement, Penicillin/Streptomycin/Glutamine, G418 (500 μg/ml) and 10% FBS. Cells are seeded in Sterile and Tissue Culture Treated Packard CulturPlate White Opaque Microplates at a concentration of 5.0E5-7.0E5 cells/ml-PerkinElmer 6005680 (96-well); Corning 3707 (384 well) in complete media containing 1.5 μCi/ml Rubidium-86. Cells are incubated in 37° C.-10% CO2 incubator overnight. On the day of the experiment, the media is removed and cells are washed with low K assay buffer. ^86Rb^+ efflux is initiated after addition of assay buffer±test compound followed by 35 min incubation at room temperature. ROMK-sensitive component of efflux is defined in the presence of 10 mM BaCl2. Assay buffer is removed and transferred to a plate and cells are solubilized in the presence of SDS. Radioactivity associated with assay and cell plate is determined.
• 1. Remove cell media and wash cells with low K assay buffer (126.9 mM NaCl, 4.6 mM KCl, 2 mM CaCl2, 1 mM MgCl2, 10 mM Hepes/NaOH; pH 7.4) • 200 μl for 96-well plate; 70 μl for 384-well plate • 2. Add assay buffer (121.5 mM NaCl, 10 mM KCl, 2 mM CaCl2, 1 mM MgCl2, 10 mM Hepes/NaOH; pH 7.4)±test compound to cells • 100 μl for 96-well plate; 50 μl for 384-well plate • 3. Incubate at ambient temperature (22-24° C.) for 35 min • 4. Remove assay buffer add it to a 96- or 384-well plate containing Microscint-20 • 96-well Plate: 100 μl buffer, 170 μl MicroScint 20 (for TopCount) • 384-well plate: 20 μl buffer, 50 μl Optiphiase (for MicroLux) • 5. Completely remove remaining assay buffer from cell plate • 6. Solubilize cells with 1% SDS; than add MicroScint or Optiphase • 96-well Plate: 30 μl SDS, 170 μl MicroScint 20 (for TopCount) • 384-well plate: 20 μl SDS, 50 μl Optiphiase (for MicroLux) • 7. Seal both cell and supernatant plates and count Data Calculation— […]

| IC50 | SMILES |
| --- | --- |
| 410 nM | N#Cc1ccc2c(c1)CCC(N1CCN(CCc3ccc4c(c3Cl)COC4=O)CC1=O)C2 (racemic) [Example 31, 6-{4-[2-(4-Chloro-1-oxo-1,3-dihydro-2-benzofuran-5-yl)ethyl]-2-oxopiperazin-1-yl}-5,6,7,8-tetrahydronaphthalene-2-carbonitrile] |
| 720 nM | N#Cc1ccc2c(c1)CCC(N1CCN(C(=O)Cc3ccc(-n4cnnn4)cc3)CC1=O)C2 (racemic) [Example 56, 6-(2-Oxo-4-{[4-(1H-tetrazol-1-yl)phenyl]acetyl}piperazin-1-yl)-5,6,7,8-tetrahydronaphthalene-2-carbonitrile] |
| 70 nM | O=C1CN(CCc2ccc([N+](=O)[O-])cc2)CCN1CCc1ccc([N+](=O)[O-])cc1 [Example 1, 1,4-bis[2-(4-nitrophenyl)ethyl]piperazin-2-one] |
| 130 nM | N#Cc1ccc2c(c1)CC(N1CCN(CCc3ccc4c(c3)COC4=O)CC1=O)C2 (racemic) [Example 44, 2-{2-Oxo-4-[2-(1-oxo-1,3-dihydro-2-benzofuran-5-yl)ethyl]piperazin-1-yl}-2,3-dihydro-1H-indene-5-carbonitrile] |
| 300 nM | N#Cc1ccc2c(c1)CCC(N1CCN(CCc3ccc4c(c3)CCOC4=O)CC1=O)C2 (racemic) [Example 42, 6-{2-Oxo-4-[2-(1-oxo-3,4-dihydro-1H-isochromen-6-yl)ethyl]piperazin-1-yl}-5,6,7,8-tetrahydronaphthalene-2-carbonitrile] |
| 280 nM | N#Cc1ccc2c(c1)CC(N1CCN(CCc3ccc4c(c3)COC4=O)CC1=O)CC2 (racemic) [Example 37, 7-{2-Oxo-4-[2-(1-oxo-1,3-dihydro-2-benzofuran-5-yl)ethyl]piperazin-1-yl}-5,6,7,8-tetrahydronaphthalene-2-carbonitrile] |
| 120 nM | N#Cc1ccc2c(c1)CCC2CN1CCN(CCc2ccc3c(c2)COC3=O)CC1=O (racemic) [Example 40, 1-({2-Oxo-4-[2-(1-oxo-1,3-dihydro-2-benzofuran-5-yl)ethyl]piperazin-1-yl}methyl)-2,3-dihydro-1H-indene-5-carbonitrile] |
| 170 nM | N#Cc1ccc(CCN2CCN(CCc3ccc4c(c3)COC4=O)CC2=O)cc1Br [Example 35] |
| 150 nM | N#Cc1cccc2c1CCCC2CN1CCN(CCc2ccc3c(c2)COC3=O)CC1=O (racemic) [Example 33, 5-((2-oxo-4-(2-(1-oxo-1,3-dihydroisobenzofuran-5-yl)ethyl)piperazin-1-yl)methyl)-5,6,7,8-tetrahydronaphthalene-1-carbonitrile] |
| 30 nM | N#Cc1ccc2c(c1)CCC(N1CCN(CCc3ccc4c(c3)COC4=O)CC1=O)C2 (racemic) [Example 26, 6-{2-Oxo-4-[2-(1-oxo-1,3-dihydro-2-benzofuran-5-yl)ethyl]piperazin-1-yl}-5,6,7,8-tetrahydronaphthalene-2-carbonitrile] |
| 410 nM | N#Cc1ccc2c(c1)CCC(N1CCN(CCc3ccc4c(c3)COC4=O)C(=O)C1)C2 (racemic) [Example 28, 6-{3-Oxo-4-[2-(1-oxo-1,3-dihydro-2-benzofuran-5-yl)ethyl]piperazin-1-yl}-5,6,7,8-tetrahydronaphthalene-2-carbonitrile] |
| 310 nM | O=C1CN(CCc2ccc([N+](=O)[O-])cc2C(F)(F)F)CCN1CCc1ccc([N+](=O)[O-])cc1 [Example 4, 1-[2-(4-Nitrophenyl)ethyl]-4-{2-[4-nitro-2-(trifluoromethyl)phenyl]ethyl}piperazin-2-one] |
| 800 nM | N#Cc1ccc2c(c1)CCC(N1CCN(C(=O)C3CCc4cc(-n5cnnn5)ccc43)CC1=O)C2 (stereo not drawn) [Example 57, 6-(2-Oxo-4-{[5-(1H-tetrazol-1-yl)-2,3-dihydro-1H-inden-1-yl]carbonyl}piperazin-1-yl)-5,6,7,8-tetrahydronaphthalene-2-carbonitrile] |
| 170 nM | O=C1CN(CCc2ccc([N+](=O)[O-])c(F)c2)CCN1CCc1ccc2nonc2c1 [Example 20, 1-[2-(2,1,3-Benzoxadiazol-5-yl)ethyl]-4-[2-(3-fluoro-4-nitrophenyl)ethyl]piperazin-2-one] |
| 820 nM | N#Cc1ccc2c(c1)CCC(N1CCN(CCc3ccc4nonc4c3)C(=O)C1)C2 (racemic) [Example 14, 6-{4-[2-(2,1,3-Benzoxadiazol-5-yl)ethyl]-3-oxopiperazin-1-yl}-5,6,7,8-tetrahydronaphthalene-2-carbonitrile] |
| 120 nM | N#Cc1ccc(CCN2CCN(CCc3ccc([N+](=O)[O-])cc3)C(=O)C2)cc1 [Example 5, 4-(2-{4-[2-(4-Nitrophenyl)ethyl]-3-oxopiperazin-1-yl}ethyl)benzonitrile] |
| 360 nM | N#Cc1c(F)ccc2c1CCC2CN1CCN(CCc2ccc3c(c2)COC3=O)CC1=O (stereo not drawn) [Example 34, 5-Fluoro-1-({2-oxo-4-[2-(1-oxo-1,3-dihydro-2-benzofuran-5-yl)ethyl]piperazin-1-yl}methyl)-2,3-dihydro-1H-indene-4-carbonitrile] |
| 460 nM | COc1ccc(CCN2CCN(CCc3ccc4c(c3)COC4=O)C(=O)C2)cc1C#N [Example 32, 2-Methoxy-5-(2-{3-oxo-4-[2-(1-oxo-1,3-dihydro-2-benzofuran-5-yl)ethyl]piperazin-1-yl}ethyl)benzonitrile] |
| 310 nM | N#Cc1ccc2c(c1)CCC(N1CCN(CCc3ccc4nonc4c3)CC1=O)C2 (racemic) [Example 13, 6-{4-[2-(2,1,3-Benzoxadiazol-5-yl)ethyl]-2-oxopiperazin-1-yl}-5,6,7,8-tetrahydronaphthalene-2-carbonitrile] |
| 40 nM | N#Cc1ccc2c(c1)CCC(N1CCN(CCc3ccc([N+](=O)[O-])cc3)C(=O)C1)C2 (racemic) [Example 2, 6-(4-(4-nitrophenethyl)-3-oxopiperazin-1-yl)-5,6,7,8-tetrahydronaphthalene-2-carbonitrile] |
| 250 nM | COC(=O)c1cc(CCN2CCN(CCc3ccc([N+](=O)[O-])cc3)C(=O)C2)ccc1[N+](=O)[O-] [Example 8, Methyl 2-nitro-5-(2-{4-[2-(4-nitrophenyl)ethyl]-3-oxopiperazin-1-yl}ethyl)benzoate] |
| 140 nM | COc1cc([N+](=O)[O-])ccc1CCN1CCN(CCc2ccc([N+](=O)[O-])cc2)C(=O)C1 [Example 11, 4-[2-(2-Methoxy-4-nitrophenyl)ethyl]-1-[2-(4-nitrophenyl)ethyl]piperazin-2-one] |
| 270 nM | CC1C(=O)N(CCc2ccc([N+](=O)[O-])cc2)CCN1CCc1ccc([N+](=O)[O-])cc1 (racemic) [Example 6, 3-Methyl-1,4-bis[2-(4-nitrophenyl)ethyl]piperazin-2-one] |

| SMILES | IC50 |
| --- | --- |
| O=C1CN(CCc2ccc([N+](=O)[O-])c(C(F)(F)F)c2)CCN1CCc1ccc([N+](=O)[O-])cc1 [Example 3, 1-[2-(4-Nitrophenyl)ethyl]-4-{2-[4-nitro-3-(trifluoromethyl)phenyl]ethyl}piperazin-2-one] | 740 nM |
